Where two headings read alike, the source gives them in different places.
Experiments:
[1] = test system: T. gondii RH strain (RH-Tub-eYFP) tachyzoites; assay: microbe, parasite or virus in culture; assay type: cell-based, Toxoplasma gondii; conditions: 72 h; for percent parasite growth at 2 µg/mL: Toxoplasma gondii
[2] = test system: P. falciparum 3D7 parasites; assay: P. falciparum growth inhibition assay, 1-cycle (72 h treatment), SYBR DNA staining (library screen at 2 μg/mL and dose-response); assay type: cell-based, Plasmodium falciparum; conditions: for activity at 2 µg/mL: Plasmodium falciparum, 3D7, 72 h
[3] = test system: P. falciparum 3D7 parasites; assay: P. falciparum growth inhibition assay, 2-cycle (120 h treatment), delayed-death screen and dose-response; assay type: cell-based, Plasmodium falciparum; conditions: for activity at 2 µg/mL: Plasmodium falciparum, 3D7, 120 h
[4] = T. gondii, parasite screen 2 μg/mL, % growth, replicate 1
[5] = T. gondii, parasite screen 2 μg/mL, % growth, replicate 2
[6] = P. falciparum, 72 h, parasite screen 2 μg/mL, % growth, replicate 1
[7] = P. falciparum, 72 h, parasite screen 2 μg/mL, % growth, replicate 2
[8] = P. falciparum, 120 h, parasite screen 2 μg/mL, % growth, replicate 1
[9] = P. falciparum, 120 h, parasite screen 2 μg/mL, % growth, replicate 2
[10] = library screen at 2 μg/mL, % growth, replicate 1
[11] = library screen at 2 μg/mL, % growth, replicate 2
[12] = library screen at 2 μg/mL, 72 h, % growth, replicate 1
[13] = library screen at 2 μg/mL, 72 h, % growth, replicate 2
[14] = library screen at 2 μg/mL, 120 h, % growth, replicate 1
[15] = library screen at 2 μg/mL, 120 h, % growth, replicate 2
[16] = T. gondii, screen at 2 μg/mL, replicate 1
[17] = T. gondii, screen at 2 μg/mL, replicate 2
[18] = P. falciparum, 72 h, screen at 2 μg/mL, replicate 1
[19] = P. falciparum, 72 h, screen at 2 μg/mL, replicate 2
[20] = P. falciparum, 120 h, screen at 2 μg/mL, replicate 1
[21] = P. falciparum, 120 h, screen at 2 μg/mL, replicate 2

## CN(N=O)C(=O)N[C@H]1C(O)O[C@H](CO)[C@@H](O)[C@@H]1O (mixture of isomers) [Streptozotocin]
[1]; [4]
  Tg_72h_%Growth_Rep1: 87.36%
[1]; [5]
  Tg_72h_%Growth_Rep2: 105.65%
[2]; [6]
  Pf_72h_%Growth_Rep1: 87.59%
[2]; [7]
  Pf_72h_%Growth_Rep2: 86.69%
[3]; [8]
  Pf_120h_%Growth_Rep1: 176.62%
[3]; [9]
  Pf_120h_%Growth_Rep2: 92.69%

## C/C=C(\C)[C@H](O)[C@H](C)/C=C(C)/C=C/C/C(C)=C/Cc1oc(OC)c(C)c(=O)c1C [Actinopyrone A]
[1]; [10]
  Tg_72h_%Growth_Rep1: 80.38%
[1]; [11]
  Tg_72h_%Growth_Rep2: 90.86%
[2]; [12]
  Pf_72h_%Growth_Rep1: 87.45%
[2]; [13]
  Pf_72h_%Growth_Rep2: 86.38%
[3]; [14]
  Pf_120h_%Growth_Rep1: 139.24%
[3]; [15]
  Pf_120h_%Growth_Rep2: 89.64%

## Cc1c2c(c(O)c3c(O)cccc13)C(=O)[C@]1(O)C(O)=C(C(N)=O)C(=O)[C@H](N(C)C)[C@@H]1C2.Cl [Epianhydrotetracycline hydrochloride]
[1]; [10]
  Tg_72h_%Growth_Rep1: 166.02%
[1]; [11]
  Tg_72h_%Growth_Rep2: 109.09%
[2]; [12]
  Pf_72h_%Growth_Rep1: 83.48%
[2]; [13]
  Pf_72h_%Growth_Rep2: 108.73%
[3]; [14]
  Pf_120h_%Growth_Rep1: 77.42%
[3]; [15]
  Pf_120h_%Growth_Rep2: 113.33%

## CCC(C)C1OC2(CCC1C)CC1CC(CC=C(C)C(OC3CC(OC)C(O)C(C)O3)C(C)C=CC=C3COC4C(O)C(C)=CC(C(=O)O1)C34O)O2 (stereo not drawn) [BIA-I1150]
[1]; T. gondii RH, library screen at 2 μg/mL, % growth, replicate 1
  Tg_72h_%Growth_Rep1: 134.07%
[1]; T. gondii RH, library screen at 2 μg/mL, % growth, replicate 2
  Tg_72h_%Growth_Rep2: 88.13%
[2]; P. falciparum 3D7, 72 h, library screen at 2 μg/mL, % growth, replicate 1
  Pf_72h_%Growth_Rep1: 84.82%
[2]; P. falciparum 3D7, 72 h, library screen at 2 μg/mL, % growth, replicate 2
  Pf_72h_%Growth_Rep2: 14.34%
[3]; P. falciparum 3D7, 120 h, library screen at 2 μg/mL, % growth, replicate 1
  Pf_120h_%Growth_Rep1: 91.15%
[3]; P. falciparum 3D7, 120 h, library screen at 2 μg/mL, % growth, replicate 2
  Pf_120h_%Growth_Rep2: 112.03%

## COc1c(Cl)c(O)c(Cl)c(C)c1C(=O)O[C@H]1[C@H](O)C[C@H](O[C@H]2[C@@H](O)CC(=O)O[C@@H]2C)O[C@@H]1C [Flambalactone]
[1]; [10]
  Tg_72h_%Growth_Rep1: 143.45%
[1]; [11]
  Tg_72h_%Growth_Rep2: 100.30%
[2]; [12]
  Pf_72h_%Growth_Rep1: 83.21%
[2]; [13]
  Pf_72h_%Growth_Rep2: 82.63%
[3]; [14]
  Pf_120h_%Growth_Rep1: 97.51%
[3]; [15]
  Pf_120h_%Growth_Rep2: 89.66%

## CC[C@H]1OC(=O)[C@H](C)[C@@H](O[C@H]2C[C@@](C)(OC)[C@@H](O)[C@H](C)O2)[C@H](C)[C@@H](O[C@@H]2O[C@H](C)C[C@H](N(C)C)[C@H]2O)[C@@]2(C)CC(C)=C(O2)[C@H](C)[C@@H](O)[C@]1(C)O [Erythromycin A enol ether]
[1]; [10]
  Tg_72h_%Growth_Rep1: 90.78%
[1]; [11]
  Tg_72h_%Growth_Rep2: 86.46%
[2]; [12]
  Pf_72h_%Growth_Rep1: 65.76%
[2]; [13]
  Pf_72h_%Growth_Rep2: 86.36%
[3]; [14]
  Pf_120h_%Growth_Rep1: 47.90%
[3]; [15]
  Pf_120h_%Growth_Rep2: 73.68%

## CC(C)=CC(=O)C[C@H](C)c1ccc(C)cc1 [Turmerone]
[1]; [16]
  Tg_72h_%Growth_Rep1: 108.84%
[1]; [17]
  Tg_72h_%Growth_Rep2: 94.24%
[2]; [18]
  Pf_72h_%Growth_Rep1: 81.95%
[2]; [19]
  Pf_72h_%Growth_Rep2: 115.94%
[3]; [20]
  Pf_120h_%Growth_Rep1: 78.99%
[3]; [21]
  Pf_120h_%Growth_Rep2: 84.67%

## O=C(O)c1cccc2nc3ccccc3nc12 [Tubermycin B]
[1]; [16]
  Tg_72h_%Growth_Rep1: 87.24%
[1]; [17]
  Tg_72h_%Growth_Rep2: 96.39%
[2]; [18]
  Pf_72h_%Growth_Rep1: 44.49%
[2]; [19]
  Pf_72h_%Growth_Rep2: 34.95%
[3]; [20]
  Pf_120h_%Growth_Rep1: 88.83%
[3]; [21]
  Pf_120h_%Growth_Rep2: 26.83%

## C/C=C/c1cc2c(c(=O)o1)[C@H](O)[C@@H](O)[C@H](C)O2 [Radicinol]
[1]; [4]
  Tg_72h_%Growth_Rep1: 118.35%
[1]; [5]
  Tg_72h_%Growth_Rep2: 83.89%
[2]; [6]
  Pf_72h_%Growth_Rep1: 83.85%
[2]; [7]
  Pf_72h_%Growth_Rep2: 102.30%
[3]; [8]
  Pf_120h_%Growth_Rep1: 82.58%
[3]; [9]
  Pf_120h_%Growth_Rep2: 123.93%

## CC(C)[C@H]1C(=O)OC[C@H](NC(=O)c2nc3ccccc3cc2O)C(=O)N2CCCC[C@@H]2C(=O)NCC(=O)N(C)CC(=O)N(C)[C@H](C(C)C)C(=O)OC[C@@H](NC(=O)c2nc3ccccc3cc2O)C(=O)N2CCCC[C@@H]2C(=O)NCC(=O)N(C)CC(=O)N1C [Sandramycin]
[1]; [4]
  Tg_72h_%Growth_Rep1: 1.61%
[1]; [5]
  Tg_72h_%Growth_Rep2: 2.90%
[2]; [6]
  Pf_72h_%Growth_Rep1: -1.10%
[2]; [7]
  Pf_72h_%Growth_Rep2: -0.11%
[3]; [8]
  Pf_120h_%Growth_Rep1: -0.53%
[3]; [9]
  Pf_120h_%Growth_Rep2: 18.12%

## C[C@H]1CCCC(=O)CCCCCc2cc(O)cc(O)c2C(=O)O1 [Zearalanone]
[1]; T. gondii, screen at 2 μg/mL, replicate 1, read-out: Tg_72h_%Growth_Rep1
  percent parasite growth at 2 µg/mL: 97%
[1]; T. gondii, screen at 2 μg/mL, replicate 2, read-out: Tg_72h_%Growth_Rep2
  percent parasite growth at 2 µg/mL: 107%
[2]; P. falciparum, 72 h, screen at 2 μg/mL, replicate 1, read-out: Pf_72h_%Growth_Rep1
  activity at 2 µg/mL: 31.9%
[2]; P. falciparum, 72 h, screen at 2 μg/mL, replicate 2, read-out: Pf_72h_%Growth_Rep2
  activity at 2 µg/mL: 78.2%
[3]; P. falciparum, 120 h, screen at 2 μg/mL, replicate 1, read-out: Pf_120h_%Growth_Rep1
  activity at 2 µg/mL: 102%
[3]; P. falciparum, 120 h, screen at 2 μg/mL, replicate 2, read-out: Pf_120h_%Growth_Rep2
  activity at 2 µg/mL: 77.7%
